33 compounds from US10800782B2, “Inhibitors of cellular metabolic processes” (Agios Pharmaceuticals, Inc., priority 2016, dated 2020) can be followed below.

pIC50: −log10 of the molar value. Some results are limits rather than exact numbers.

This assay has as its target T1, MAT2A (Homo sapiens, UniProt P31153).
T1 construct: His6; made in house; host or cells: SF9 insect cells
Briefly: MAT2A biochemical assay (colorimetric inorganic phosphate detection, PiColorLock). The note with it: recombinant His6-tagged MAT2A 1 μg/ml; 60 minutes preincubation at 25° C.; L-Met 80 μM, ATP 100 μM; 60 minutes reaction; read at 623 nm; read-out: MAT2A Inhibition Score. The method, boiled down:
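His6-tagged human MAT2A (SF9-expressed, 1 μg/ml) converting L-Met and ATP to SAM in Tris pH 8.0, 50 mM KCl, 15 mM MgCl2, 300 uM EDTA, 0.005% BSA; 60 min at room temperature. Released phosphate detected colorimetrically with malachite green phosphomolybdate. Ten-point, three-fold compound dilution series.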

T1 sequence (P31153 whole entry): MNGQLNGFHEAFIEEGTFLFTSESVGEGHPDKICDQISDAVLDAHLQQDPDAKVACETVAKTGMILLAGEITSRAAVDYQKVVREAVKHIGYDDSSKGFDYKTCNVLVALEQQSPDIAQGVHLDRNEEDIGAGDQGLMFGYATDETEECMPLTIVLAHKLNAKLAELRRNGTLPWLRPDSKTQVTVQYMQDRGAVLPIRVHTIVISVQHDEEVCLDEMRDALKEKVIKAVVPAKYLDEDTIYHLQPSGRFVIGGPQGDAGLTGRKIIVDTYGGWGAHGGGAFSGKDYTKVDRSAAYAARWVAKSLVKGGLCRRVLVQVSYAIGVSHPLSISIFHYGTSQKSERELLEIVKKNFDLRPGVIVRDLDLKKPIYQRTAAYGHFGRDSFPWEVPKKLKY

Consider `COc1cc(-c2c(C)[nH]c3c(-c4ccccc4)c(-c4ccccc4)nn3c2=O)ccc1O` [Compound 259, 6-(4-hydroxy-3-methoxyphenyl)-5-methyl-2,3-diphenylpyrazolo[1,5-a]pyrimidin-7(4H)-one], for which the pIC50 was more than 7.00.
With `Cc1[nH]c2c(-c3ccccc3)c(-c3ccccc3)nn2c(=O)c1-c1ccc(O)c(O)c1` [Compound 260, 6-(3,4-dihydroxyphenyl)-5-methyl-2,3-diphenylpyrazolo[1,5-a]pyrimidin-7(4H)-one] the figure was more than 7.00.
The result for `Cc1[nH]c2c(-c3ccccc3)c(-c3ccccc3)nn2c(=O)c1-c1ccc(O)c(OCCO)c1` [Compound 261, 6-(4-hydroxy-3-(2-hydroxyethoxy)phenyl)-5-methyl-2,3-diphenylpyrazolo[1,5-a]pyrimidin-7(4H)-one] reads more than 7.00; that for `Cc1[nH]c2c(N3CCCCC3)c(-c3ccccc3)nn2c(=O)c1-c1ccc(O)cc1` [Compound 262, 6-(4-hydroxyphenyl)-5-methyl-2-phenyl-3-(piperidin-1-yl)pyrazolo[1,5-a]pyrimidin-7(4H)-one], more than 7.00.
Consider `O=C(NCc1[nH]c2c(-c3ccccc3)c(-c3ccccc3)nn2c(=O)c1-c1ccc2ncccc2c1)C(F)(F)F` [Compound 263, 2,2,2-trifluoro-N-((7-oxo-2,3-diphenyl-6-(quinolin-6-yl)-4,7-dihydropyrazolo[1,5-a]pyrimidin-5-yl)methyl)acetamide], for which the pIC50 was more than 7.00.
Regarding `COc1ccc(-c2c(CNc3nc[nH]n3)[nH]c3c(-c4ccccc4)c(-c4ccccc4)nn3c2=O)cc1` [Compound 264, 5-(((1H-1,2,4-triazol-3-yl)amino)methyl)-6-(4-methoxyphenyl)-2,3-diphenylpyrazolo[1,5-a]pyrimidin-7(4H)-one], the pIC50 is more than 7.00.
With `Cc1[nH]c2c(C3=CCC(F)(F)CC3)c(-c3ccccc3)nn2c(=O)c1-c1ccc2ncccc2c1` [Compound 265, 3-(4,4-difluorocyclohex-1-en-1-yl)-5-methyl-2-phenyl-6-(quinolin-6-yl)pyrazolo[1,5-a]pyrimidin-7(4H)-one] the figure was more than 7.00.
As for `Cc1[nH]c2c(N3CCCCC3)c(-c3ccccc3)nn2c(=O)c1-c1cn[nH]c1` [Compound 266, 5-methyl-2-phenyl-3-(piperidin-1-yl)-6-(1H-pyrazol-4-yl)pyrazolo[1,5-a]pyrimidin-7(4H)-one], the pIC50 was more than 7.00.
The result for `Cc1[nH]c2c(N3CCCCC3)c(-c3ccccc3)nn2c(=O)c1-c1ccc2[nH]cnc2c1` [Compound 267, 6-(1H-benzo[d]imidazol-5-yl)-5-methyl-2-phenyl-3-(piperidin-1-yl)pyrazolo[1,5-a]pyrimidin-7(4H)-one] reads more than 7.00; that for `Cc1[nH]c2c(N3CCCCC3)c(-c3ccccc3)nn2c(=O)c1-c1ccc2[nH]c(N)nc2c1` [Compound 268, 6-(2-amino-1H-benzo[d]imidazol-5-yl)-5-methyl-2-phenyl-3-(piperidin-1-yl)pyrazolo[1,5-a]pyrimidin-7(4H)-one], more than 7.00; that for `COc1ccc(-c2c(C)n(C)c3c(N4CCCCC4)c(-c4ccccc4)nn3c2=O)cc1` [Compound 269, 6-(4-methoxyphenyl)-4,5-dimethyl-2-phenyl-3-(piperidin-1-yl)pyrazolo[1,5-a]pyrimidin-7(4H)-one], more than 7.00.
As to `Cc1c(-c2ccc(O)cc2)c(=O)n2nc(-c3ccccc3)c(-c3cccs3)c2n1C` [Compound 271, 6-(4-hydroxyphenyl)-4,5-dimethyl-2-phenyl-3-(thiophen-2-yl)pyrazolo[1,5-a]pyrimidin-7(4H)-one], the pIC50 was more than 7.00.
Regarding `COc1ccc(-c2c(C)[nH]c3c(N4CCC(F)(F)C4)c(-c4ccccc4)nn3c2=O)cc1` [Compound 272, 3-(3,3-difluoropyrrolidin-1-yl)-6-(4-methoxyphenyl)-5-methyl-2-phenylpyrazolo[1,5-a]pyrimidin-7(4H)-one], the pIC50 is more than 7.00.
The result for `O=c1c(-c2ccc(O)cc2)c(O)[nH]c2c(-c3ccccc3)c(-c3ccccc3)nn12` [Compound 273, 5-hydroxy-6-(4-hydroxyphenyl)-2,3-diphenylpyrazolo[1,5-a]pyrimidin-7(4H)-one] reads more than 7.00; that for `COc1ccc(-c2c(O)n(C)c3c(-c4ccccc4)c(-c4ccccc4)nn3c2=O)cc1` [Compound 274, 5-hydroxy-6-(4-methoxyphenyl)-4-methyl-2,3-diphenylpyrazolo[1,5-a]pyrimidin-7(4H)-one], more than 7.00; that for `O=c1c(-c2ccc3ncccc3c2)c(O)[nH]c2c(-c3ccccc3)c(-c3ccccc3)nn12` [Compound 275, 5-hydroxy-2,3-diphenyl-6-(quinolin-6-yl)pyrazolo[1,5-a]pyrimidin-7(4H)-one], more than 7.00.
For `Nc1[nH]c2c(-c3ccccc3)c(-c3ccccc3)nn2c(=O)c1-c1ccc(O)cc1` [Compound 276, 5-amino-6-(4-hydroxyphenyl)-2,3-diphenylpyrazolo[1,5-a]pyrimidin-7(4H)-one], the pIC50 was more than 7.00.
With `Cc1[nH]c2c(C3CCCCC3)c(-c3ccccc3)nn2c(=O)c1-c1ccc2ncccc2c1` [Compound 277, 3-cyclohexyl-5-methyl-2-phenyl-6-(quinolin-6-yl)pyrazolo[1,5-a]pyrimidin-7(4H)-one] the figure was more than 7.00; with `CNCc1[nH]c2c(-c3ccccc3)c(-c3ccccc3)nn2c(=O)c1-c1ccc2ncccc2c1` [Compound 278, 5-((methylamino)methyl)-2,3-diphenyl-6-(quinolin-6-yl)pyrazolo[1,5-a]pyrimidin-7(4H)-one], more than 7.00.
The result for `COc1ccc(-c2c(O)[nH]c3c(C4=CCCCC4)c(-c4ccccc4)nn3c2=O)cc1` [Compound 279, 3-(cyclohex-1-en-1-yl)-5-hydroxy-6-(4-methoxyphenyl)-2-phenylpyrazolo[1,5-a]pyrimidin-7(4H)-one] reads more than 7.00; that for `Cc1[nH]c2c(-c3ccccc3)c(-c3cc[nH]n3)nn2c(=O)c1-c1ccc2ncccc2c1` [Compound 280, 5-methyl-3-phenyl-2-(1H-pyrazol-3-yl)-6-(quinolin-6-yl)pyrazolo[1,5-a]pyrimidin-7(4H)-one], more than 7.00.
With `Cn1c(CO)c(-c2ccc3ncccc3c2)c(=O)n2nc(-c3ccccc3)c(-c3ccccc3)c12` [Compound 281, 5-(hydroxymethyl)-4-methyl-2,3-diphenyl-6-(quinolin-6-yl)pyrazolo[1,5-a]pyrimidin-7(4H)-one] the figure was more than 7.00; with `Cc1[nH]c2c(C3=CC(O)CCC3)c(-c3ccccc3)nn2c(=O)c1-c1ccc2ncccc2c1` (stereo not drawn) [Compound 282], more than 7.00.
`COc1ccc(-c2c(NC(=O)CN)[nH]c3c(-c4ccccc4)c(-c4ccccc4)nn3c2=O)cc1` [Compound 283, 2-amino-N-(6-(4-methoxyphenyl)-7-oxo-2,3-diphenyl-4,7-dihydropyrazolo[1,5-a]pyrimidin-5-yl)acetamide]: the pIC50 was more than 7.00.
On to `COc1ccc(-c2c(Nc3nnc(C)s3)[nH]c3c(-c4ccccc4)c(-c4ccccc4)nn3c2=O)cc1` [Compound 285, 6-(4-methoxyphenyl)-5-((5-methyl-1,3,4-thiadiazol-2-yl)amino)-2,3-diphenylpyrazolo[1,5-a]pyrimidin-7(4H)-one], for which the pIC50 was more than 7.00.
For the compound `COc1ccc(-c2c(NCCO)[nH]c3c(-c4ccccc4)c(-c4ccccc4)nn3c2=O)cc1` [Compound 286, 5-((2-hydroxyethyl)amino)-6-(4-methoxyphenyl)-2,3-diphenylpyrazolo[1,5-a]pyrimidin-7(4H)-one], the pIC50 is more than 7.00.
Turning to `CCOC(=O)n1ccc(Nc2[nH]c3c(-c4ccccc4)c(-c4ccccc4)nn3c(=O)c2-c2ccc(OC)cc2)n1` [Compound 287, ethyl 3-((6-(4-methoxyphenyl)-7-oxo-2,3-diphenyl-4,7-dihydropyrazolo[1,5-a]pyrimidin-5-yl)amino)-1H-pyrazole-1-carboxylate], the pIC50 was more than 7.00.
As to `COc1ccc(-c2c(O)[nH]c3c(-c4ccccc4)c(-c4ccccc4)nn3c2=O)cc1` [Compound 290, 5-hydroxy-6-(4-methoxyphenyl)-2,3-diphenylpyrazolo[1,5-a]pyrimidin-7(4H)-one], the pIC50 is more than 7.00.
The result for `COCn1c(-c2ccccc2)c(C2=CCCCC2)c2nc(C)c(-c3ccc(OC)cc3)c(=O)n21` [Compound 291, 3-cyclohexenyl-1-(methoxymethyl)-6-(4-methoxyphenyl)-5-methyl-2-phenylpyrazolo[1,5-a]pyrimidin-7(1H)-one] reads more than 7.00; that for `Cc1[nH]c2c(-c3ccccc3)c(-c3ccccc3)nn2c(=O)c1-c1ccc(O)c(OCCN(C)C)c1` [Compound 292, 6-(3-(2-(dimethylamino)ethoxy)-4-hydroxyphenyl)-5-methyl-2,3-diphenylpyrazolo[1,5-a]pyrimidin-7(4H)-one], more than 7.00; that for `Cc1[nH]c2c(C3=CCCCC3)c(-c3ccccc3)nn2c(=O)c1-c1ccc(OC(=O)[C@@H](N)C(C)C)cc1` [Compound 294, (S)-4-(3-cyclohexenyl-5-methyl-7-oxo-2-phenyl-4,7-dihydropyrazolo[1,5-a]pyrimidin-6-yl)phenyl 2-amino-3-methylbutanoate], more than 7.00.
The result for `Cc1[nH]c2c(C3=CCCCC3)c(-c3ccccc3)nn2c(=O)c1-c1ccc(OP(=O)(O)O)cc1` [Compound 295, 4-(3-(cyclohex-1-en-1-yl)-5-methyl-7-oxo-2-phenyl-4,7-dihydropyrazolo[1,5-a]pyrimidin-6-yl)phenyl dihydrogen phosphate] reads more than 7.00; that for `Cc1[nH]c2c(C3=CCCCC3)c(-c3ccccc3)nn2c(=O)c1-c1ccc(OCOP(=O)(O)O)cc1` [Compound 296, (4-(3-cyclohexenyl-5-methyl-7-oxo-2-phenyl-4,7-dihydropyrazolo[1,5-a]pyrimidin-6-yl)phenoxy)methyl dihydrogen phosphate], more than 7.00.
